Reference: the NIST ThermoML archive (doi:10.1021/je500381c)
± gives the expanded uncertainty stated by the source.

Assay: refractive index (Na D-line) (dimensionless); xn = mol fraction of the nth substance listed
Conditions: 100 kPa, Liquid, Standard Abbe refractometry

CCC12CC3CC(CC(C3)C1)C2 [1-ethyladamantane] + CCCCCCCO
refractive index
Conditions	x2 = 0	x2 = 0.0999	x2 = 0.1999	x2 = 0.2988	x2 = 0.3991	x2 = 0.4998	x2 = 0.5995	x2 = 0.7	x2 = 0.8002	x2 = 0.9
293.15 K	1.4927 ± 0.001	1.4869 ± 0.001	1.4809 ± 0.001	1.4746 ± 0.001	1.4682 ± 0.001	1.461 ± 0.001	1.4546 ± 0.001	1.4473 ± 0.001	1.4397 ± 0.001	1.4316 ± 0.001
298.15 K	1.4906 ± 0.001	1.4847 ± 0.001	1.4785 ± 0.001	1.4725 ± 0.001	1.466 ± 0.001	1.4594 ± 0.001	1.4522 ± 0.001	1.4451 ± 0.001	1.4376 ± 0.001	1.4298 ± 0.001
303.15 K	1.4884 ± 0.001	1.4827 ± 0.001	1.4768 ± 0.001	1.4704 ± 0.001	1.464 ± 0.001	1.4573 ± 0.001	1.4499 ± 0.001	1.4433 ± 0.001	1.4359 ± 0.001	1.4278 ± 0.001
313.15 K	1.4839 ± 0.001	1.4782 ± 0.001	1.4722 ± 0.001	1.466 ± 0.001	1.4596 ± 0.001	1.4528 ± 0.001	1.4462 ± 0.001	1.4389 ± 0.001	1.4316 ± 0.001	1.4236 ± 0.001
323.15 K	1.4802 ± 0.001	1.474 ± 0.001	1.468 ± 0.001	1.4618 ± 0.001	1.4554 ± 0.001	1.4486 ± 0.001	1.4419 ± 0.001	1.4349 ± 0.001	1.4273 ± 0.001	1.4198 ± 0.001
333.15 K	1.4759 ± 0.001	1.4697 ± 0.001	1.4635 ± 0.001	1.4577 ± 0.001	1.451 ± 0.001	1.4443 ± 0.001	1.4373 ± 0.001	1.4305 ± 0.001	1.423 ± 0.001	1.4156 ± 0.001

CCC12CC3CC(CC(C3)C1)C2 [1-ethyladamantane] + OCC1CCCCC1
refractive index
Conditions	x2 = 0	x2 = 0.1	x2 = 0.2002	x2 = 0.2997	x2 = 0.3999	x2 = 0.4998	x2 = 0.5989	x2 = 0.7001	x2 = 0.8023	x2 = 0.8996
293.15 K	1.4927 ± 0.001	1.4903 ± 0.001	1.4877 ± 0.001	1.4853 ± 0.001	1.4828 ± 0.001	1.4801 ± 0.001	1.477 ± 0.001	1.474 ± 0.001	1.4708 ± 0.001	1.4673 ± 0.001
298.15 K	1.4906 ± 0.001	1.4883 ± 0.001	1.4861 ± 0.001	1.4835 ± 0.001	1.4807 ± 0.001	1.478 ± 0.001	1.4754 ± 0.001	1.4721 ± 0.001	1.4689 ± 0.001	1.4655 ± 0.001
303.15 K	1.4884 ± 0.001	1.4861 ± 0.001	1.4836 ± 0.001	1.4812 ± 0.001	1.4783 ± 0.001	1.4757 ± 0.001	1.4733 ± 0.001	1.47 ± 0.001	1.4668 ± 0.001	1.4634 ± 0.001
313.15 K	1.4839 ± 0.001	1.4816 ± 0.001	1.4791 ± 0.001	1.4768 ± 0.001	1.4741 ± 0.001	1.471 ± 0.001	1.4687 ± 0.001	1.4657 ± 0.001	1.4623 ± 0.001	1.4593 ± 0.001
323.15 K	1.4802 ± 0.001	1.4775 ± 0.001	1.4751 ± 0.001	1.4725 ± 0.001	1.4699 ± 0.001	1.4672 ± 0.001	1.4645 ± 0.001	1.4616 ± 0.001	1.4584 ± 0.001	1.4553 ± 0.001
333.15 K	1.4759 ± 0.001	1.4725 ± 0.001	1.4703 ± 0.001	1.4678 ± 0.001	1.4652 ± 0.001	1.4627 ± 0.001	1.4599 ± 0.001	1.4571 ± 0.001	1.4541 ± 0.001	1.451 ± 0.001

OCC1CCCCC1 [cyclohexylmethanol] + CC12CC3CC(C1)CC(C)(C3)C2
refractive index
Conditions	x1 = 0.1002	x1 = 0.1995	x1 = 0.2996	x1 = 0.4004	x1 = 0.4973	x1 = 0.6008	x1 = 0.7002	x1 = 0.7999	x1 = 0.9	x1 = 1
293.15 K	1.4759 ± 0.001	1.4754 ± 0.001	1.4742 ± 0.001	1.4732 ± 0.001	1.4719 ± 0.001	1.4705 ± 0.001	1.4692 ± 0.001	1.4673 ± 0.001	1.4655 ± 0.001	1.4629 ± 0.001
298.15 K	1.4738 ± 0.001	1.4734 ± 0.001	1.4722 ± 0.001	1.4709 ± 0.001	1.4698 ± 0.001	1.4688 ± 0.001	1.467 ± 0.001	1.4653 ± 0.001	1.4638 ± 0.001	1.4612 ± 0.001
303.15 K	1.4716 ± 0.001	1.4712 ± 0.001	1.47 ± 0.001	1.4689 ± 0.001	1.4679 ± 0.001	1.4664 ± 0.001	1.4651 ± 0.001	1.4635 ± 0.001	1.4617 ± 0.001	1.4592 ± 0.001
313.15 K	1.4673 ± 0.001	1.4669 ± 0.001	1.4656 ± 0.001	1.4645 ± 0.001	1.4633 ± 0.001	1.462 ± 0.001	1.4607 ± 0.001	1.4584 ± 0.001	1.4571 ± 0.001	1.455 ± 0.001
323.15 K	1.4626 ± 0.001	1.4623 ± 0.001	1.461 ± 0.001	1.4602 ± 0.001	1.459 ± 0.001	1.4575 ± 0.001	1.4564 ± 0.001	1.4548 ± 0.001	1.4535 ± 0.001	1.4507 ± 0.001
333.15 K	1.4583 ± 0.001	1.4578 ± 0.001	1.4565 ± 0.001	1.4554 ± 0.001	1.4544 ± 0.001	1.4529 ± 0.001	1.4514 ± 0.001	1.45 ± 0.001	1.4488 ± 0.001	1.4463 ± 0.001
